Laboratory results as given in BindingDB's records for PubMed 11196150 (Janssen Research Foundation, 2001).
Several values for one entry are separate records, joined by “and”; a condition that tells them apart may be missing. Equal values may be shown once.

Target: Protein farnesyltransferase subunit beta/geranylgeranyltransferase type-1 subunit alpha (Homo sapiens, UniProt P49354+P49356)
Assay: FTase Scintillation Proximity Assay
Conditions: pH 7.5; 22 °C
Procedure: Compounds were tested as inhibitors of FTase in vitro using purified human enzyme to catalyze the reaction between [3H] FPP and a biotinylated peptide substrate. Reaction was terminated by addition of streptavidin scintillation proximity assay beads (Amersham), and the mixtures were subsequently analyzed by scintillation counting.

**Q.** `Cn1cncc1[C@@](N)(c1ccc(Cl)cc1)c1ccc2c(c1)c(-c1cccc(Cl)c1)cc(=O)n2C` (racemic) [Racemic mixture] was tested. Which IC50 did it give?
**A.** Its IC50 is 7.9 nM and 0.86 nM.
